What all share (type): binding
Assay [1] has as its target kinases (KINOMEscan panel) (Homo sapiens, UniProt Q13233). To be noted: MAP3K1; NEW KINOMEscan.
In assay [2] the target is T1, kinases (KINOMEscan panel) (Homo sapiens, UniProt Q8NG66).
T1 sequence (Q8NG66 1-645): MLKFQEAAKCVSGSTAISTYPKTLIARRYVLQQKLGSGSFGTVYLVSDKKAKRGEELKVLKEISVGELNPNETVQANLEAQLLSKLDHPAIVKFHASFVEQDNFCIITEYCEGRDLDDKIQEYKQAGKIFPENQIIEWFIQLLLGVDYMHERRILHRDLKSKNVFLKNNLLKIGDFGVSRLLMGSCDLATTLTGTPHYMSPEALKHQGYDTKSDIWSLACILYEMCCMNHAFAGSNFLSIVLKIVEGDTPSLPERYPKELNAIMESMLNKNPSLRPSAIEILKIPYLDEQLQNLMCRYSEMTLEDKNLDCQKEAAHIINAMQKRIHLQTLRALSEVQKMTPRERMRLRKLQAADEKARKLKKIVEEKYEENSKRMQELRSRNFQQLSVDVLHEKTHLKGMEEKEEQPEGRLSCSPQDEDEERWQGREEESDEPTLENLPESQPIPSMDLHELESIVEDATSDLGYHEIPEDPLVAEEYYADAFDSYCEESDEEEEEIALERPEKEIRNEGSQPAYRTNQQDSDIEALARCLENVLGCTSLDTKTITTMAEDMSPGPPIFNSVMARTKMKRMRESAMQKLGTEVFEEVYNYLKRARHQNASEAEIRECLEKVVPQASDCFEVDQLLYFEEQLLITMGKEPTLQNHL
To be noted: NEW KINOMEscan.

The target in assay [3] is kinases (KINOMEscan panel) (Homo sapiens, UniProt Q00532). To be noted: CDKL1; NEW KINOMEscan.
Sequence of kinases (KINOMEscan panel) (Homo sapiens, UniProt Q00532) (Q00532 whole entry): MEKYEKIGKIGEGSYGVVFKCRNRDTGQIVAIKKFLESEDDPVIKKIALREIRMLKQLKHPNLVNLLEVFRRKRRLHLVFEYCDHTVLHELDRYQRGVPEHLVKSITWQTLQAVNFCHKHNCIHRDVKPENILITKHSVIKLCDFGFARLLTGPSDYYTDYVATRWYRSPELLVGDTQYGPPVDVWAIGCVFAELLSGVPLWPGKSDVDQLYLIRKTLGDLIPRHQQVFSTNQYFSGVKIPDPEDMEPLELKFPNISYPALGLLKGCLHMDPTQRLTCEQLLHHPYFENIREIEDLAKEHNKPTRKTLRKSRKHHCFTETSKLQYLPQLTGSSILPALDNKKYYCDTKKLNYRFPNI
For assay [4], the target named is kinases (KINOMEscan panel) (Homo sapiens, UniProt Q9UM73). To be noted: kinase ALK; NEW KINOMEscan.
Sequence of kinases (KINOMEscan panel) (Homo sapiens, UniProt Q9UM73) (Q9UM73 19-1620): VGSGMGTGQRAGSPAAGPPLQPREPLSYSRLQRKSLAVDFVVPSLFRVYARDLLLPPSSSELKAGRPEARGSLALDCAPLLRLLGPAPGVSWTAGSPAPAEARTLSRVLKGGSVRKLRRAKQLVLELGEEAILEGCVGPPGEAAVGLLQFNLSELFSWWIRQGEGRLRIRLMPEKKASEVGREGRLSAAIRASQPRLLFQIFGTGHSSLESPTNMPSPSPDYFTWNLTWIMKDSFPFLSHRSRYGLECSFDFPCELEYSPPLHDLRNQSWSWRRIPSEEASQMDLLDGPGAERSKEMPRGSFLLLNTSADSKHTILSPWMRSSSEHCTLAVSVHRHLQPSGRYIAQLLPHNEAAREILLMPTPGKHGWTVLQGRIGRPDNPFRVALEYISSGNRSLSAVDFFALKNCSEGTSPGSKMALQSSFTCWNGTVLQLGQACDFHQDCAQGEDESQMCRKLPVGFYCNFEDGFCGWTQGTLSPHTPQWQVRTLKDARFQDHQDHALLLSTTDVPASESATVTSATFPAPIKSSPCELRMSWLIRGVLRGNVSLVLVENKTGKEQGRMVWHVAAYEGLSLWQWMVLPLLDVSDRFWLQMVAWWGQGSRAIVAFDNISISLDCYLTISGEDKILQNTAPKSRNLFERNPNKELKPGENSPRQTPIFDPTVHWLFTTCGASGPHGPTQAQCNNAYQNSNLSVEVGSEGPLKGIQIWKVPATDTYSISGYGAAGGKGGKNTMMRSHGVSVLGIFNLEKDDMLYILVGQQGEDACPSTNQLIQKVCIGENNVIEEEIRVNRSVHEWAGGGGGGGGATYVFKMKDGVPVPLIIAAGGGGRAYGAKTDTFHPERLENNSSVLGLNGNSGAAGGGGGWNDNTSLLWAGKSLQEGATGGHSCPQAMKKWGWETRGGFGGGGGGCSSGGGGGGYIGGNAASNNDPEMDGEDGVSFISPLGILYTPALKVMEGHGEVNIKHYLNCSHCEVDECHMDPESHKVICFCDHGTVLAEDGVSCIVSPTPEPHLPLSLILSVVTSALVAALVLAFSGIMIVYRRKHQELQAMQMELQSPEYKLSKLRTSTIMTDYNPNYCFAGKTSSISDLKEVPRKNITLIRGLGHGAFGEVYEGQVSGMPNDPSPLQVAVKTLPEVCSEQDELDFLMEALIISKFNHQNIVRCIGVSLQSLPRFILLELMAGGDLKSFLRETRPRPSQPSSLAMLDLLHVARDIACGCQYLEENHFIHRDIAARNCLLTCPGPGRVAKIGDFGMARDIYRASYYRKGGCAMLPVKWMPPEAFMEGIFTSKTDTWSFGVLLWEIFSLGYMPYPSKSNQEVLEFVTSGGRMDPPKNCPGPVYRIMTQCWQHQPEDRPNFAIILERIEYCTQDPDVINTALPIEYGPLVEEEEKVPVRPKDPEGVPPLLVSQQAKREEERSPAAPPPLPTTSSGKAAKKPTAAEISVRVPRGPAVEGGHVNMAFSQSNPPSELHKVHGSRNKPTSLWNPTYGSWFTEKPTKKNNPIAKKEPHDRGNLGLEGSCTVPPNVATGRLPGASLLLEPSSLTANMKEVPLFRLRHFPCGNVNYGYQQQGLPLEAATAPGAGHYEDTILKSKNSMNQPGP
Assay [5] has as its target kinases (KINOMEscan panel) (Homo sapiens, UniProt P42336, E545K). To be noted: NEW KINOMEscan.
In assay [6] the target is T2, kinases (KINOMEscan panel) (Homo sapiens, UniProt P36888).
T2 sequence (P36888 27-993): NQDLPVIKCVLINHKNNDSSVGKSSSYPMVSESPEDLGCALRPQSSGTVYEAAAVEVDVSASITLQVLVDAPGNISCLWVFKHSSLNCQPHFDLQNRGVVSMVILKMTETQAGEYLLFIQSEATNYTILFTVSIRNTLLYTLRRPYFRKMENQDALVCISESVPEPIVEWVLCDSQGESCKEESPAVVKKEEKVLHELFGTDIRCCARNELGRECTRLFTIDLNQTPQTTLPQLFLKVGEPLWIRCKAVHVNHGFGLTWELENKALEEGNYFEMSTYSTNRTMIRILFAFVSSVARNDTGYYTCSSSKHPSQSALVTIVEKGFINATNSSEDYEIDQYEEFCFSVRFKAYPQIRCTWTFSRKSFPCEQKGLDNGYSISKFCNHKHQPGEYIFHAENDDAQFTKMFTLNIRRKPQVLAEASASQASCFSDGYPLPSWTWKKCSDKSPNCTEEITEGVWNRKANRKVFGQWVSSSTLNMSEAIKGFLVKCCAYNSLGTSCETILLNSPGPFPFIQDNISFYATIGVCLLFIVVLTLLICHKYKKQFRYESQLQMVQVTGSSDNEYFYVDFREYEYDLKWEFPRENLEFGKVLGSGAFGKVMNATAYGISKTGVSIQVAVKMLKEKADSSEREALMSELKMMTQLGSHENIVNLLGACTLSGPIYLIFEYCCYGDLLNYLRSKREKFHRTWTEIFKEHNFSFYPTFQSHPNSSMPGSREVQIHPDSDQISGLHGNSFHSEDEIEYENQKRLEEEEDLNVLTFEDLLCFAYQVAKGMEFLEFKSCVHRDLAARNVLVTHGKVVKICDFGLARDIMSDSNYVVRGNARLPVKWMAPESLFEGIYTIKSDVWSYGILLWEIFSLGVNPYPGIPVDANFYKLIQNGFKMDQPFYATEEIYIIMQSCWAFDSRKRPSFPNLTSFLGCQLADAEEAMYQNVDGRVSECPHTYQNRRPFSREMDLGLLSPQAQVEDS
To be noted: NEW KINOMEscan; for KINOMEscan FLT3-autoinhibited: kinase FLT3-autoinhibited.

The target of assay [7] is kinases (KINOMEscan panel) (Homo sapiens, UniProt P42336, E542K). To be noted: NEW KINOMEscan.
Sequence of kinases (KINOMEscan panel) (Homo sapiens, UniProt P42336, E542K) (P42336 whole entry E542K): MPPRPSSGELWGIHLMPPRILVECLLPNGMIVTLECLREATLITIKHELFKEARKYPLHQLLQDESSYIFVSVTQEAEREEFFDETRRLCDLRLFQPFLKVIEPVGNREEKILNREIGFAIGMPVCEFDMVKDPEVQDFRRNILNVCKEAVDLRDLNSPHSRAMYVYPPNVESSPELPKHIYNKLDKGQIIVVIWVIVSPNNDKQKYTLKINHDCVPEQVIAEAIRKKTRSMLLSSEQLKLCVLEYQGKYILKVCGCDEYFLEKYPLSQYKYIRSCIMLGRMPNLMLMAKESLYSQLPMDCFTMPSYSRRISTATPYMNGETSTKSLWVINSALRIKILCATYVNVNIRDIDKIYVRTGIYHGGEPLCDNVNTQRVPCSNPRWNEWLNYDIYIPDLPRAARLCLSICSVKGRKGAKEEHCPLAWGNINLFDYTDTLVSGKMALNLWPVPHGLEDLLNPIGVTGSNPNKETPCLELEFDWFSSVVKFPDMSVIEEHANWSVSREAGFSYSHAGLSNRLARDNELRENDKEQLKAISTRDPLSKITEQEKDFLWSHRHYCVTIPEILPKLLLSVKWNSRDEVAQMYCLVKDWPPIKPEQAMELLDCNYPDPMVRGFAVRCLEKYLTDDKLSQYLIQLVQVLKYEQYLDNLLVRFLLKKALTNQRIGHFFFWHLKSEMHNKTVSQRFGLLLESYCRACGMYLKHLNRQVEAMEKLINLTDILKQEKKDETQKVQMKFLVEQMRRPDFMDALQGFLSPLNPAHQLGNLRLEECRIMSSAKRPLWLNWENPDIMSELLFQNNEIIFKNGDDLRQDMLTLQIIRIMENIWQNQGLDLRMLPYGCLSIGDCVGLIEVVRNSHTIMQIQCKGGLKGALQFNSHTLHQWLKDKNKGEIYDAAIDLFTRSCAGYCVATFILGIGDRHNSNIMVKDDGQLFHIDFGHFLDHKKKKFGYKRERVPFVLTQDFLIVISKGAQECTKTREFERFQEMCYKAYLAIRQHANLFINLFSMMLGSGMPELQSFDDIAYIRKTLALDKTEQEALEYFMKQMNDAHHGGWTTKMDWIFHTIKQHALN

Sequence of kinases (KINOMEscan panel) (Homo sapiens, UniProt P42336, E545K) (P42336 whole entry E545K): as the sequence (P42336 whole entry E542K) above, with K542E, E545K counted along it
Sequence of kinases (KINOMEscan panel) (Homo sapiens, UniProt Q13233) (Q13233 whole entry): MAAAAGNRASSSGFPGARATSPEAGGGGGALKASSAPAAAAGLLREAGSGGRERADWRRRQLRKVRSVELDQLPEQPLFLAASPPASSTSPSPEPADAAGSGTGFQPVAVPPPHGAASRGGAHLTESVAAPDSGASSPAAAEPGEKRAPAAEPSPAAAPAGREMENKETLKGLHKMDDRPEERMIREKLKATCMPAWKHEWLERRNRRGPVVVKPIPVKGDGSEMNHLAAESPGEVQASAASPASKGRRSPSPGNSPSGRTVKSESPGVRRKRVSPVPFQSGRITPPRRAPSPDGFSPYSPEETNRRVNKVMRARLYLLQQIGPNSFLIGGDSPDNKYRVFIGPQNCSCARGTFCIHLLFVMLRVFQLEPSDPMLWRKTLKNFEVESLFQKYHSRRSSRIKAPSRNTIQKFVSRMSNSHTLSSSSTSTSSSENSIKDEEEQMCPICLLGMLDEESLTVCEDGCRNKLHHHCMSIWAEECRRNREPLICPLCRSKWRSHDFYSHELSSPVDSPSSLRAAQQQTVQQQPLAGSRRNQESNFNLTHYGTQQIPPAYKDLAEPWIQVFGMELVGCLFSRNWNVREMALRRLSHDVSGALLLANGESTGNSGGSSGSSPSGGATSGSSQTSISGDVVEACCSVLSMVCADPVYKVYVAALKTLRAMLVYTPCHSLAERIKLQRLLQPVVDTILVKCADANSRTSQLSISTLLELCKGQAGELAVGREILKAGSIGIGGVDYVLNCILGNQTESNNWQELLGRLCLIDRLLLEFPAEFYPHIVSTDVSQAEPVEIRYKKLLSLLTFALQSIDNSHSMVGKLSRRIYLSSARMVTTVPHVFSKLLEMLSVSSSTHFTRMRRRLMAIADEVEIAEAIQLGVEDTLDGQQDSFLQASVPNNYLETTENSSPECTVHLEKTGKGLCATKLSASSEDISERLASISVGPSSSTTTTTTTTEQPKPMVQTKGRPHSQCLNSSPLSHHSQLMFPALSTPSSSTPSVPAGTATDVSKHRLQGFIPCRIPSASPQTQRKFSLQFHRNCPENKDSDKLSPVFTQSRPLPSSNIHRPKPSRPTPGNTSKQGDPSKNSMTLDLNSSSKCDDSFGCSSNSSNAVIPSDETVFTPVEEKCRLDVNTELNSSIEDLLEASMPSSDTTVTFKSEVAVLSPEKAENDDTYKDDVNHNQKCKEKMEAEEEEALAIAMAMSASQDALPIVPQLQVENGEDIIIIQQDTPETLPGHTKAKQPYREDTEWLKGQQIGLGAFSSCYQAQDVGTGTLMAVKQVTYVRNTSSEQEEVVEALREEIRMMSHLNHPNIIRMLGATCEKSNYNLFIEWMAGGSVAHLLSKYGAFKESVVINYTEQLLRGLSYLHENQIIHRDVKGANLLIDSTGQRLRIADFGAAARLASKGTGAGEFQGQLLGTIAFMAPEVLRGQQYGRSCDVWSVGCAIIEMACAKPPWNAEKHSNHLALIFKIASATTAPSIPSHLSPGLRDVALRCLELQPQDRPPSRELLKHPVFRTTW

Turning to `Cc1cccc(-c2nc(Nc3ccc4nn(C)cc4c3)c3ccccc3n2)n1` [NK167], the “KINOMEscan MAP3K1” value in assay [1] stood at 0. Besides, the “KINOMEscan NEK11” value in assay [2] turned out to be 0. Besides, in assay [3], the “KINOMEscan CDKL1” value is on record as 44. In addition, the “KINOMEscan ALK” value in assay [4] stood at 22. Moreover, the “KINOMEscan PIK3CA(E545K)” value in assay [5] was determined as 67. For the same compound, in assay [6], the “KINOMEscan FLT3” value is 0 and the “KINOMEscan FLT3-autoinhibited” value is given as 0. Further, the “KINOMEscan PIK3CA(E542K)” value in assay [7] was 15.
On to `Cc1cccc(-c2nc(N(C)c3ccc4ncsc4c3)c3ccccc3n2)n1` [NK-161], for which, in assay [1], the “KINOMEscan MAP3K1” value came to 0. Also, the “KINOMEscan NEK11” value in assay [2] was found to be 2. For the same compound, the “KINOMEscan CDKL1” value in assay [3] amounted to 36. Moreover, the “KINOMEscan ALK” value in assay [4] came to 9. The “KINOMEscan PIK3CA(E545K)” value in assay [5] was found to be 40. In assay [6], the “KINOMEscan FLT3” value is recorded as 0 and the “KINOMEscan FLT3-autoinhibited” value stood at 0. The “KINOMEscan PIK3CA(E542K)” value in assay [7] was determined as 19.

(Values after paper PMC9851200, “Multiparameter phenotypic screening for endogenous TFEB and TFE3 translocation identifies novel chemical series modulating lysosome function” (Autophagy, 2022).)
